Assay results published in ChEMBL document CHEMBL3991601, “The target landscape of clinical kinase drugs” (Science, 2017).
Calls of active or inactive are those of the source. For most assays here, no stated cut-off is given here; in the data, actives have a measured Kd and inactives only a lower limit.

Key:
[1] = target: Mitogen-activated protein kinase kinase kinase 20 (Homo sapiens, UniProt Q9NYL2)
[2] = target: Chromodomain-helicase-DNA-binding protein 4 (Homo sapiens, UniProt Q14839)
Ephrin type-A receptor 1 = target: T1, Ephrin type-A receptor 1 (Homo sapiens, UniProt P21709)
T1 sequence (P21709 whole entry): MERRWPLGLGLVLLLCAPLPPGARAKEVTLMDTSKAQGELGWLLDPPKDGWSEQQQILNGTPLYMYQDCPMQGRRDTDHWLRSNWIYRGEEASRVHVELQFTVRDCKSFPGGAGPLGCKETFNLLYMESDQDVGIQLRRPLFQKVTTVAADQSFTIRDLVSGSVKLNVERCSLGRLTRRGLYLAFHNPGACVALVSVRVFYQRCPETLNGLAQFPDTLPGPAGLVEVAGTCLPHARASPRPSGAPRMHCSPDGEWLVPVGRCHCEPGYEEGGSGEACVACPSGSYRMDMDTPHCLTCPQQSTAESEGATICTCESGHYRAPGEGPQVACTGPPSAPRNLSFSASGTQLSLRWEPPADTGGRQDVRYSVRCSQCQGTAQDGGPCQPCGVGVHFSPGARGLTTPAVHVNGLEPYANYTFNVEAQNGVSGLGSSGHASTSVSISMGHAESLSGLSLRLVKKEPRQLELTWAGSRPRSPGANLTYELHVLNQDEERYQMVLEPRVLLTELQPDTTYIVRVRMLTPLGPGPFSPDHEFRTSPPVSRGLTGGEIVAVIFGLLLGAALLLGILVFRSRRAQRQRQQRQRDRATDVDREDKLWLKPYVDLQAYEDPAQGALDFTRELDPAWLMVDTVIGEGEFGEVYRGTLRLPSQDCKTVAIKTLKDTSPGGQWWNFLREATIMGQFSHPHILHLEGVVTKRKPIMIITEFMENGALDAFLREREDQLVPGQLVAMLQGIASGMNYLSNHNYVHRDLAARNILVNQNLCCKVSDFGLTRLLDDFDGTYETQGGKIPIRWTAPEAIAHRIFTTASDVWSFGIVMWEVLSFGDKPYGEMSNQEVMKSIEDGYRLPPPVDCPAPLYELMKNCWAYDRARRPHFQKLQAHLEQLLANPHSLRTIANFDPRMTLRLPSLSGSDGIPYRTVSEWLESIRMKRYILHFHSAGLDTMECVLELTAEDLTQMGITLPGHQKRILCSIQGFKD

[3] = target: Citron Rho-interacting kinase (Homo sapiens, UniProt O14578)
Citron Rho-interacting kinase, sequence (O14578 whole entry): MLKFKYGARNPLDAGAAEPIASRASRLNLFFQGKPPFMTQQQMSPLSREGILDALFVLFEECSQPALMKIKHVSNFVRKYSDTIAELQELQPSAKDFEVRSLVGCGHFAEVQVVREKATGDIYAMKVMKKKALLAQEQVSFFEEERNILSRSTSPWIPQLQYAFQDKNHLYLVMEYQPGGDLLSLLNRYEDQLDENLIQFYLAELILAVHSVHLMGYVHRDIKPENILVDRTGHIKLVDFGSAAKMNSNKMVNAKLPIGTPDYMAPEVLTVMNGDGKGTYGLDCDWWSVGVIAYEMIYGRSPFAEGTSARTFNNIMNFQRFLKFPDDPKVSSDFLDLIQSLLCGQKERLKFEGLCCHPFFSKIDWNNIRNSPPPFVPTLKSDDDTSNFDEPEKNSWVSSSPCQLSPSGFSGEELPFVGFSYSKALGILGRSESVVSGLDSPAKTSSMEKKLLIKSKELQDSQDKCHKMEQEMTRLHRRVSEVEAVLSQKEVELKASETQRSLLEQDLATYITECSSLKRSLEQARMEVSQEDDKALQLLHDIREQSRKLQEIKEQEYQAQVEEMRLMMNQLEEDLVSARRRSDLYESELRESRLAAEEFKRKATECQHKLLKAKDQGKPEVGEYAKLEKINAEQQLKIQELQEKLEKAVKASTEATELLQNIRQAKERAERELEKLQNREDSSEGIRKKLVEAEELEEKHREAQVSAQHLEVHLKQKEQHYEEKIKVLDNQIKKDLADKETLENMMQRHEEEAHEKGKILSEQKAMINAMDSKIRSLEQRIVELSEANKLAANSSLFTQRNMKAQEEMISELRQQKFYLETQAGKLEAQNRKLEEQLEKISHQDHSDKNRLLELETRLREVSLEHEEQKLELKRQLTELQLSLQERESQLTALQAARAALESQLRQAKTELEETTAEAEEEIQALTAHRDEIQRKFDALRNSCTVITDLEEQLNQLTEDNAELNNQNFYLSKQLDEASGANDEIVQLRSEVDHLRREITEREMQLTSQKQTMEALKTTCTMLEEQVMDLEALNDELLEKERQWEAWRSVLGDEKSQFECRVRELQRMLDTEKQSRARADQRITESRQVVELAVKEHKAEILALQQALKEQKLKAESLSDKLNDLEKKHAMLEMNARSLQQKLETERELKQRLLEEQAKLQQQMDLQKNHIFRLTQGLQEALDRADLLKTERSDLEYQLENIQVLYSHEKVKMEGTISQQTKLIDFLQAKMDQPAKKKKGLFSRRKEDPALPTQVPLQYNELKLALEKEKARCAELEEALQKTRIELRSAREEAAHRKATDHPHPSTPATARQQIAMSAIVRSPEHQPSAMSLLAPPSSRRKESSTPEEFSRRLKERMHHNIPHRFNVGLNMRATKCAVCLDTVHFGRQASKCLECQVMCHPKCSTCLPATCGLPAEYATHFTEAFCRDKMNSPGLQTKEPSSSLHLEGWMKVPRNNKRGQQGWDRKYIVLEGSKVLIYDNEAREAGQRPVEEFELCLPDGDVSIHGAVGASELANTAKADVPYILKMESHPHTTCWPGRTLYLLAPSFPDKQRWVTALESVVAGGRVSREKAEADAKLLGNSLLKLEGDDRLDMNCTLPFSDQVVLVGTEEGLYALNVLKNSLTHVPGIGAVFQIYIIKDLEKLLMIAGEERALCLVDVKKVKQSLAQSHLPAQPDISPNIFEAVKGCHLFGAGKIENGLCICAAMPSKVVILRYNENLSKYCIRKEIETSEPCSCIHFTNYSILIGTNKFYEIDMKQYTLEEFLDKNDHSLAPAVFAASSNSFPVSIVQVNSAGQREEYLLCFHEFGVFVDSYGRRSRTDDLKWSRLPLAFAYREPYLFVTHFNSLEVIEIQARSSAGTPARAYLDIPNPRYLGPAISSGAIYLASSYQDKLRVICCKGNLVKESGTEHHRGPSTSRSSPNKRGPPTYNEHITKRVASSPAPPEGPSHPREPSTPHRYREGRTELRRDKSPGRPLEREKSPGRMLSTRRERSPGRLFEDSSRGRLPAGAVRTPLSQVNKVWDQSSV

[4] = target: T2, Phosphatidylinositol 5-phosphate 4-kinase type-2 gamma (Homo sapiens, UniProt Q8TBX8)
T2 sequence (Q8TBX8 whole entry): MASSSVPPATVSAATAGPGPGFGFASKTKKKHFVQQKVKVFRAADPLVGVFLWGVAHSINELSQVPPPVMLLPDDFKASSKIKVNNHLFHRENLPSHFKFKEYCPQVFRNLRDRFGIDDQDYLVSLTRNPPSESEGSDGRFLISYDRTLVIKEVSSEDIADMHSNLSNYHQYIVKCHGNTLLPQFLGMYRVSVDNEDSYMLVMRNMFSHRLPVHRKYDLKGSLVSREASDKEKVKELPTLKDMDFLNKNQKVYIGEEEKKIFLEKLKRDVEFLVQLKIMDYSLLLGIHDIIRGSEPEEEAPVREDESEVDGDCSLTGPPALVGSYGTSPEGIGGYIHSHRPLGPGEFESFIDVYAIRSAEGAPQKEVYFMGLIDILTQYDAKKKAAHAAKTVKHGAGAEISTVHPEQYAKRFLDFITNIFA

[5] = target: T3, Serine/threonine-protein kinase Nek3 (Homo sapiens, UniProt P51956)
T3 sequence (P51956 whole entry): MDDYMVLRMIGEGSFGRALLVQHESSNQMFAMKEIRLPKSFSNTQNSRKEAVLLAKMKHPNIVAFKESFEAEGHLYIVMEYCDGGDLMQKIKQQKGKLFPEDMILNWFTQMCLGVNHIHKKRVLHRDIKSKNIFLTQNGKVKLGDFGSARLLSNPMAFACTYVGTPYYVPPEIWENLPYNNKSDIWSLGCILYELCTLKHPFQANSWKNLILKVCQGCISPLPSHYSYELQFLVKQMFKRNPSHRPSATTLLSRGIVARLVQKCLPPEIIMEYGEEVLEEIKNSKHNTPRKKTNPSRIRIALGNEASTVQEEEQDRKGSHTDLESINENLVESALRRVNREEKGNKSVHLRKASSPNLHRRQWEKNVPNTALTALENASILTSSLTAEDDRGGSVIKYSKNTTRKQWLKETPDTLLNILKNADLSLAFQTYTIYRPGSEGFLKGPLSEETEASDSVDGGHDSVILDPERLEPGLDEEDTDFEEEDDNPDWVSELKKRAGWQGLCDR

[6] = target: Tyrosine-protein kinase Lck (Homo sapiens, UniProt P06239)
Tyrosine-protein kinase Lck, sequence (P06239 whole entry): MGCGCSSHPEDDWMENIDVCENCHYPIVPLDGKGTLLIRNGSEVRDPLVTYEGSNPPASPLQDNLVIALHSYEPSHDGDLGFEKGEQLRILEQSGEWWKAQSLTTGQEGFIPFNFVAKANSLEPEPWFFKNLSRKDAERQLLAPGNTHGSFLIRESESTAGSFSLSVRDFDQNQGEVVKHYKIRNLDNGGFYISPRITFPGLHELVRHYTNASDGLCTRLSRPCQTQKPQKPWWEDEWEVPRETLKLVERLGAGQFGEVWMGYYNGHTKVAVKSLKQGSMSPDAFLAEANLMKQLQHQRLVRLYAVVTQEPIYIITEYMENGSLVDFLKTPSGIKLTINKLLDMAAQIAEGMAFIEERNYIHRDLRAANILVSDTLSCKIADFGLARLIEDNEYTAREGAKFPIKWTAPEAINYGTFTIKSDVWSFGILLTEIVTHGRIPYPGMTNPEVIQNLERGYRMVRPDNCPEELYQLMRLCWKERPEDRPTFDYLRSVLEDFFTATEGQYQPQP

[7] = target: T4, Ribosyldihydronicotinamide dehydrogenase [quinone] (Homo sapiens, UniProt P16083)
T4 sequence (P16083 whole entry): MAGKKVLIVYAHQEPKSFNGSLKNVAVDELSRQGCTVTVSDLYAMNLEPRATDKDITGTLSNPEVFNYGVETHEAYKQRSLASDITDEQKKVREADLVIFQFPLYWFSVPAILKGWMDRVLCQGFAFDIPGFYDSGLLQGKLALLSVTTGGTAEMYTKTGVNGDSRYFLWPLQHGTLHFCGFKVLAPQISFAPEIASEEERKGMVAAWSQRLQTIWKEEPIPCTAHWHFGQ

[8] = target: Myosin light chain kinase, smooth muscle (Homo sapiens, UniProt Q15746)
[9] = target: Epithelial discoidin domain-containing receptor 1 (Homo sapiens, UniProt Q08345)
Ephrin type-A receptor 2 = Ephrin type-A receptor 2 (Homo sapiens, UniProt P29317)
Ephrin type-A receptor 2, sequence (P29317 whole entry): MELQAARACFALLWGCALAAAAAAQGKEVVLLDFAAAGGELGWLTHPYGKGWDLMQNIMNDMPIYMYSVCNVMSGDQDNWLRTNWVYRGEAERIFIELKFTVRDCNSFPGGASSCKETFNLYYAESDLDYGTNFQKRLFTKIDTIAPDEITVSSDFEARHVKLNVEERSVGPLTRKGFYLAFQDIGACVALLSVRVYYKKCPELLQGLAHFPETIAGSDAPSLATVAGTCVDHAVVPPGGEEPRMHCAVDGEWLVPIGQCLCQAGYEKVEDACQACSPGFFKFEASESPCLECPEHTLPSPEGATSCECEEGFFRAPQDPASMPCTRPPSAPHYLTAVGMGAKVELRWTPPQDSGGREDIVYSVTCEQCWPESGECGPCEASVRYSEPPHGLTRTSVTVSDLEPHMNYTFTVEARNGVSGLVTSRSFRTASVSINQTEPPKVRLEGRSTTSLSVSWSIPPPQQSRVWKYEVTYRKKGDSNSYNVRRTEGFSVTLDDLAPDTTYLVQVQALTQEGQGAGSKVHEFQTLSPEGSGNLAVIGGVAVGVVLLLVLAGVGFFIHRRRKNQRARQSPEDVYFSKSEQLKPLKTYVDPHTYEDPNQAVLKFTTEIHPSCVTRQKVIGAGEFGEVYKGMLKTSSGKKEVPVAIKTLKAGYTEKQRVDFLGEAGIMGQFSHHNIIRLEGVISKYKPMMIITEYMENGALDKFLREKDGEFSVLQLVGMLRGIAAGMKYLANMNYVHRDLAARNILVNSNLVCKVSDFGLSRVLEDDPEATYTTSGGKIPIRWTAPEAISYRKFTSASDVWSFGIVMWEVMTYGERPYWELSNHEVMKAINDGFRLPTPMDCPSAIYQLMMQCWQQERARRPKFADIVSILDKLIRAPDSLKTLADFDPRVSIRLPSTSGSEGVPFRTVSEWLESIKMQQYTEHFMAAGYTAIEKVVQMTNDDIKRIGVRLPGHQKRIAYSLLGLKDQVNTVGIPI

[10] = target: RAC-gamma serine/threonine-protein kinase (Homo sapiens, UniProt Q9Y243)
RAC-gamma serine/threonine-protein kinase, sequence (Q9Y243 whole entry): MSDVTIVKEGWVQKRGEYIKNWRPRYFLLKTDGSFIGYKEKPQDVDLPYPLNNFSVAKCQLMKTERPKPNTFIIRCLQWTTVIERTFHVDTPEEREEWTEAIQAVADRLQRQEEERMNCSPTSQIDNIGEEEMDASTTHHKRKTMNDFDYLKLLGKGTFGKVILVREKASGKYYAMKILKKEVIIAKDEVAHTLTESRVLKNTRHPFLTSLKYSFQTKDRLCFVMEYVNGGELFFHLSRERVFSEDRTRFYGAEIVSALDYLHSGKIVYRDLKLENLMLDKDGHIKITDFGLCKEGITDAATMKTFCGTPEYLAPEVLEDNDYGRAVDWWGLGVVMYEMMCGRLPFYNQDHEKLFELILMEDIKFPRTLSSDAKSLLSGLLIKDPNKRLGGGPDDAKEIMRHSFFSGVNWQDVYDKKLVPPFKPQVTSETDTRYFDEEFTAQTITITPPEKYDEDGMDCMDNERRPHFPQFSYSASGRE

Mitogen-activated protein kinase kinase kinase 20, sequence (Q9NYL2 whole entry): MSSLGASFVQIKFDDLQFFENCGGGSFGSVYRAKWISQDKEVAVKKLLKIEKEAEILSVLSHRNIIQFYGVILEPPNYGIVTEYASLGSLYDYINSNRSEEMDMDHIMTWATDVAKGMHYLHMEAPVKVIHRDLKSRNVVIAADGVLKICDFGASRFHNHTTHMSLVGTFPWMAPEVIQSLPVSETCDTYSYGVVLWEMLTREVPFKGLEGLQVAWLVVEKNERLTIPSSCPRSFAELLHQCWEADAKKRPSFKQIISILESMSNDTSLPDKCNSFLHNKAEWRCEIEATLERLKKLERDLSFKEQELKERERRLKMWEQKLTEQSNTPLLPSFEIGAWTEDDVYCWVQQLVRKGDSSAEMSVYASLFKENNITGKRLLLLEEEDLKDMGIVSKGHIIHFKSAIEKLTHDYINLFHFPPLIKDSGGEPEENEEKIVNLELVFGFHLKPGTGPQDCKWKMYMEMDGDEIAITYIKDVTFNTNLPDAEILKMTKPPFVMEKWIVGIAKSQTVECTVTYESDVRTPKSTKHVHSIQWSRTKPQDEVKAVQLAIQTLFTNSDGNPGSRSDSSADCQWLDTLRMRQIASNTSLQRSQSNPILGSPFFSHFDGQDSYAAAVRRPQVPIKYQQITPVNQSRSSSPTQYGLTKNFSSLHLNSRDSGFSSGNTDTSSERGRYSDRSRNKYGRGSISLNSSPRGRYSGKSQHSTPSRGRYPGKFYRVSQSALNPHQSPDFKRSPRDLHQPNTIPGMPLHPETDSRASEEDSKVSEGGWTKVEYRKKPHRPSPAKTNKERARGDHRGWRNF

| Compound | Kd [1] | Kd [2] | Kd (Ephrin type-A receptor 1) | Kd [3] | Kd [4] | Kd [5] | Kd [6] | Kd [7] | Kd [8] | Kd [9] | Kd (Ephrin type-A receptor 2) | Kd [10] |
| --- | --- | --- | --- | --- | --- | --- | --- | --- | --- | --- | --- | --- |
| C[C@@H](Oc1cc(C(=O)Nc2ccc(C(=O)N3CCN(C)CC3)cc2)nnc1N)c1c(Cl)ccc(F)c1Cl | > 30 µM (inactive) | > 30 µM (inactive) | > 30 µM (inactive) | > 30 µM (inactive) | > 30 µM (inactive) | > 30 µM (inactive) | > 30 µM (inactive) | > 30 µM (inactive) | > 30 µM (inactive) | > 30 µM (inactive) | > 30 µM (inactive) | – |
| C[C@H]1CNCCCN1S(=O)(=O)c1cccc2cncc(F)c12 | > 30 µM (inactive) | > 30 µM (inactive) | > 30 µM (inactive) | > 30 µM (inactive) | > 30 µM (inactive) | > 30 µM (inactive) | > 30 µM (inactive) | 3.7 µM (active) | > 30 µM (inactive) | > 30 µM (inactive) | > 30 µM (inactive) | – |
| CCNC(=O)C#Cc1ccc2c(c1)NC(=O)/C2=C(\Nc1ccc(CN(C)C)cc1)c1ccccc1 | > 30 µM (inactive) | > 30 µM (inactive) | > 30 µM (inactive) | > 30 µM (inactive) | > 30 µM (inactive) | > 30 µM (inactive) | 0.115 µM (active) | > 30 µM (inactive) | > 30 µM (inactive) | 0.469 µM (active) | > 30 µM (inactive) | – |
| COc1cc(Nc2ncc3c(n2)-c2ccc(Cl)cc2C(c2c(F)cccc2OC)=NC3)ccc1C(=O)O [ALISERTIB] | – | > 30 µM (inactive) | > 30 µM (inactive) | – | – | > 30 µM (inactive) | > 30 µM (inactive) | > 30 µM (inactive) | > 30 µM (inactive) | > 30 µM (inactive) | – | – |
| CNC(=O)c1ccccc1Sc1ccc2c(/C=C/c3ccccn3)n[nH]c2c1 [AXITINIB] | – | > 30 µM (inactive) | – | – | – | – | – | > 30 µM (inactive) | – | – | – | – |
| CC(C)(C)c1nc(-c2cccc(NS(=O)(=O)c3c(F)cccc3F)c2F)c(-c2ccnc(N)n2)s1 [DABRAFENIB] | 0.184 µM (active) | > 30 µM (inactive) | 0.705 µM | > 30 µM (inactive) | > 30 µM (inactive) | > 30 µM (inactive) | 0.783 µM (active) | > 30 µM (inactive) | > 30 µM (inactive) | > 30 µM (inactive) | > 30 µM (inactive) | – |
| Cn1cc(C2=C(c3cn(C4CCN(Cc5ccccn5)CC4)c4ccccc34)C(=O)NC2=O)c2ccccc21 [ENZASTAURIN] | – | – | – | – | – | – | – | > 30 µM (inactive) | – | – | – | – |
| O=C(Nc1cc(C(F)(F)F)cc(C(F)(F)F)c1)c1cc(Cl)ccc1O [IMD-0354] | > 30 µM (inactive) | > 30 µM (inactive) | > 30 µM (inactive) | > 30 µM (inactive) | > 30 µM (inactive) | > 30 µM (inactive) | > 30 µM (inactive) | > 30 µM (inactive) | 3.22 µM | > 30 µM (inactive) | > 30 µM (inactive) | – |
| Cc1[nH]c(/C=C2\C(=O)Nc3ccccc32)c(C)c1CCC(=O)O [ORANTINIB] | – | > 30 µM (inactive) | > 30 µM (inactive) | > 30 µM (inactive) | – | > 30 µM (inactive) | – | > 30 µM (inactive) | > 30 µM (inactive) | > 30 µM (inactive) | – | – |
| CNC(=O)c1cc(Oc2ccc(NC(=O)Nc3cc(C(C)(C)C)nn3-c3ccc4ncccc4c3)c(F)c2)ccn1 [REBASTINIB] | 0.388 µM (active) | > 30 µM (inactive) | – | > 30 µM (inactive) | > 30 µM (inactive) | > 30 µM (inactive) | – | > 30 µM (inactive) | 2.18 µM (active) | 0.272 µM (active) | > 30 µM (inactive) | > 30 µM (inactive) |
| N#CC[C@H](C1CCCC1)n1cc(-c2ncnc3[nH]ccc23)cn1 [RUXOLITINIB] | – | > 30 µM (inactive) | – | – | – | 29.9 µM (active) | – | > 30 µM (inactive) | – | – | – | – |
| CN1CCN(CCOc2cc(OC3CCOCC3)c3c(Nc4c(Cl)ccc5c4OCO5)ncnc3c2)CC1 [SARACATINIB] | 2.98 µM (active) | > 30 µM (inactive) | – | > 30 µM (inactive) | > 30 µM (inactive) | > 30 µM (inactive) | – | > 30 µM (inactive) | > 30 µM (inactive) | 4.4 µM (active) | 0.729 µM (active) | > 30 µM (inactive) |
| Cn1ncc(Cl)c1-c1cc(C(=O)N[C@H](CN)Cc2ccc(F)c(F)c2)oc1Cl [UPROSERTIB] | > 30 µM (inactive) | > 30 µM (inactive) | > 30 µM (inactive) | > 30 µM (inactive) | > 30 µM (inactive) | > 30 µM (inactive) | > 30 µM (inactive) | > 30 µM (inactive) | > 30 µM (inactive) | > 30 µM (inactive) | > 30 µM (inactive) | – |

Further lines, with some results ahead:

| Kd [1] | Kd [2] | Kd (Ephrin type-A receptor 1) | Kd [3] | Kd [4] | Kd [5] | Kd [6] | Kd [7] | Kd [8] | Kd [9] | Kd (Ephrin type-A receptor 2) | Compound | Kd [10] |
| --- | --- | --- | --- | --- | --- | --- | --- | --- | --- | --- | --- | --- |
| – | > 30 µM (inactive) | – | – | – | – | – | > 30 µM (inactive) | – | – | – | C[C@@H](Oc1cc(-n2cnc3ccc(CN4CCN(C)CC4)cc32)sc1C(N)=O)c1ccccc1C(F)(F)F [GSK-461364] | – |
| > 30 µM (inactive) | > 30 µM (inactive) | > 30 µM (inactive) | > 30 µM (inactive) | > 30 µM (inactive) | > 30 µM (inactive) | > 30 µM (inactive) | > 30 µM (inactive) | > 30 µM (inactive) | > 30 µM (inactive) | > 30 µM (inactive) | NC1(c2ccc(-c3nc4ccn5c(=O)[nH]nc5c4cc3-c3ccccc3)cc2)CCC1 [MK-2206] | – |
| – | > 30 µM (inactive) | > 30 µM (inactive) | > 30 µM (inactive) | – | > 30 µM (inactive) | – | > 30 µM (inactive) | > 30 µM (inactive) | 0.067 µM (active) | – | NC(=O)c1c(OCc2c(F)cc(Br)cc2F)nsc1NC(=O)NCCCCN1CCCC1 [OSI-632] | – |
| – | > 30 µM (inactive) | > 30 µM (inactive) | > 30 µM (inactive) | > 30 µM (inactive) | > 30 µM (inactive) | – | > 30 µM (inactive) | > 30 µM (inactive) | > 30 µM (inactive) | – | CC(=O)NCC(=O)N1[C@@H]2CC[C@H]1c1ccc(Nc3ncc(C(F)(F)F)c(NC4CCC4)n3)cc12 [PF-03814735] | – |
| – | > 30 µM (inactive) | – | – | – | – | – | > 30 µM (inactive) | – | – | – | O=C(NOCCO)c1cc(CN2OCCCC2=O)c(F)c(F)c1Nc1ccc(I)cc1F [RO-4987655] | – |
